# Data reported in PMC3873925, “Peptide-Mediated Liposomal Doxorubicin Enhances Drug Delivery Efficiency and Therapeutic Efficacy in Animal Models” (PLoS ONE, 2013).
# Legend:
# LL/2-derived tumors = assay: Syngenic animal model; format: in vivo, C57BL/6 mice; conditions: five injections
# Method: C57BL/6 mice (6-week-old, NLAC) were injected s.c. in the dorsolateral flank with 2×10^6 LL/2 cells in 100 µL serum-free media. […] The dosage of SP-5-2-LD was 1 or 2 mg/kg, injected twice a week for four weeks. Mouse body weight and tumor size were measured twice a week. Tumor volumes were calculated using the equation: length × (width)^2 ×0.52 and presented as standard error of the mean. This study used humane endpoint by determining the tumor size (>10% of body weight) or mouse weight loss (>20% of body weight). Mice were observed twice a week and given soft diet. Animal care was carried out in accordance with the guidelines of Academia Sinica, Taiwan.
# LL/2 cells = assay: Lung metastasis animal model; format: in vivo; conditions: 2 mg/kg i.v. twice a week, eight injections (16 mg/kg total)
# Method: LL/2 cells were washed twice by centrifugation in media without serum at room temperature, and re-suspended in media at 4°C prior to injection. Cell viability was determined by trypan blue exclusion, and only cell suspensions with greater than 95% viability and without cell clumping were used. Cells (1×10^5 cells/mouse) were inoculated via the lateral tail vein of 6-week-old female C57BL/6 mice. Mice were then treated with different formulations of anti-cancer drugs. The dosage was 1 or 2 mg/kg twice a week for four weeks. Mouse body weight and survival rate were measured twice a week. The endpoint was determined by the mouse weight loss (>20% of body weight) or mouse activity assessment (hunching, stationary, ruffling and poor grooming). Mice were observed every day and given soft diet. Animal care was carried out in accordance with the guidelines of Academia Sinica, Taiwan.
# H460 cells [1] = assay: Orthotopic lung adenocarcinoma model; format: in vivo, SCID mice; conditions: 1 mg/kg i.v. twice a week, eight injections, started five days after orthotopic injection
# Method: SCID mice (4-week-old) were anesthetized with isoflourane mixed with oxygen and placed in the right lateral decubitus position. The skin overlying the left chest wall in the mid-axillary line was treated with alcohol, and the underlying chest wall and intercostal spaces were visualized. H460 cells (5×10^5; single-cell suspensions of over 90% viability as determined by trypan blue exclusion) in 50 µL serum-free media plus Matrigel Matrix (BD Biosciences) (1∶1) were injected into the left lateral thorax, at the lateral dorsal axillary line. After tumor injection, the mice were turned to the left lateral decubitus position and observed for 45 to 60 minutes until fully recovered. Mice were then treated with different formulations of anti-cancer drugs. The dosage was 1 mg/kg twice a week for four weeks. Mouse body weight and survival rate were measured twice a week. The endpoint was determined by the mouse weight loss (>20% of body weight) or mouse activity assessment (hunching, stationary, ruffling and poor grooming). Mice were observed every day and given soft diet. Animal care was carried out in accordance with the guidelines of Academia Sinica, Taiwan.
# [2] = Pharmacokinetic and biodistribution studies in H460 xenograft-bearing mice; format: in vivo, NOD/SCID mice; conditions: 2 mg/kg i.v.
# Method: Human cancer xenografts were established in NOD/SCID mice (NLAC). H460 cells (5×10^6) were injected subcutaneously (s.c.) into the dorsolateral flanks of 4-week-old mice. […] At selected time points, three mice in each group were anaesthetized and sacrificed with 50% CO2 containing 50% O2. Blood samples were collected through submaxillary punctures, and plasma samples were prepared. After perfusion, xenograft tumors and mouse organs were removed and homogenized. Tumor cell nuclei were isolated and nuclear doxorubicin was extracted as described previously, [32]. The total doxorubicin concentration was measured as described by Mayer et al.. Total doxorubicin was quantified using spectrofluorometry at λex 485/20 nm and λem 645/40 nm (Synergy HT Multi-Detection Microplate Reader, BioTek Instruments, Winooski, VT).
# Tissue concentrations of doxorubicin were expressed as microequivalents per milliliter of plasma or per gram of tissue. A standard doxorubicin curve was prepared in control homogenates by following the above extraction procedure. Drug levels were estimated on the basis of doxorubicin fluorescent equivalents.
# H460 cells [3] = assay: Peptide-binding assay (cellular ELISA); format: cell-based, human
# Method: (§1) H460 cells were seeded in 96-well ELISA plates at 1×10^4 per well. After 24-hour incubation, cells were fixed with 3.7% paraformaldehyde for 10 min at 4°C and then blocked with 1% BSA in PBS for 1 hour at room temperature. Serial diluted biotinylated peptides were incubated with cells for 1 hour at room temperature. After twice washing with PBS, cells were incubated with HRP-conjugated streptavidin (1∶5000 dilution) for 1 hour and then washed with PBS supplemented with 0.1% tween-20 for four times. Binding activity was assessed by cellular ELISA with optical density at 490 nm. For competition assay, cells were firstly incubated with unlabeled peptides at room temperature for 1 hour before incubated with 10 µg/ml biotinylated SP5-2 peptides.
# H460 cells [4] = assay: Peptide competition assay (cellular ELISA); format: cell-based, human; conditions: B-SP5-2 10 µg/ml, unlabeled peptide 22 to 600 µg/ml
# Method: as §1
compound,measurement,setting,value
"COc1cccc2c1C(=O)c1c(O)c3c(c(O)c1C2=O)C[C@@](O)(C(=O)CO)C[C@@H]3O[C@H]1C[C@H](N)[C@H](O)[C@H](C)O1 [FD, doxorubicin]","tumor size, fold larger than in equivalent SP5-2-LD-treated mice",LL/2-derived tumors; 1 mg/kg i.v. twice a week,1.55 fold
same,"tumor size, fold larger than in equivalent SP5-2-LD-treated mice",LL/2-derived tumors; 2 mg/kg i.v. twice a week,2.38 fold
same,median overall survival,LL/2 cells,21 days
same,mean life spans,H460 cells [1],25 days
same,AUC0-72 h Blood,[2],5.9 µg·h/g
same,AUC0-72 h Heart,[2],26.3 µg·h/g
same,AUC0-72 h Kidney,[2],87.2 µg·h/g
same,AUC0-72 h Liver,[2],293.6 µg·h/g
same,AUC0-72 h Lung,[2],421.2 µg·h/g
same,AUC0-72 h Nuclei,[2]; doxorubicin bound to tumor cell nuclei,5.5 µg·h/g
same,AUC0-72 h Tumor,[2]; doxorubicin in tumor tissue,8.5 µg·h/g
TDSILRSYDWTY [SP5-2],minimum binding activity started at,"H460 cells [3]; H460 cells, biotinylated peptide",1 µg/mL
same,inhibition of Biotin-labeled SP5-2 binding to H460 cells by unlabeled peptide,H460 cells [4],competitively inhibited
"TDSILRSYDGGG [MP5-2, mutant peptide, WTY motif changed to GGG]",binding activity,"H460 cells [3]; H460 and LL/2 cells, WTY motif changed to GGG",remarkable loss of binding activity
